Patent US6506885B1, “Monoclonal antibodies to the drug tilmicosin and a method for detecting the same” (The United States of America as represented by the …, priority 2001, dated 2003)

What was measured:
[1] = tested on: monoclonal antibody 47-1-1; experiment: competitive indirect ELISA (ciELISA) on (XII) coated plates, antibody 47-1-1; assay type: binding
Procedure: (§1) The supernatant culture fluid from the cloned hybridomas also may be screened to select for those producing antibodies having a high affinity for tilmicosin. Affinity may be measured using solid phase immunoassays such as ELISA, RIA, or equilibrium dialysis using labeled tilmicosin. In the preferred embodiment, affinity is measured by competitive indirect ELISA as described in the Examples, and is conducted at a final antibody concentration (dilution from the tissue culture supernatant) to give 50% of maximal binding to a tilmicosin- or 23-deoxo-23-demycinosyl tilmicosin-carrier complex coated substrate or assay well (i.e., the concentration of the antibody that results in 50% of the plateau activity in direct binding ELISA). […] Following incubation and washing, bound antibody in the wells is determined in the same manner as the db-ELISA. Percent inhibition may be calculated as (1−B/Bo)×100, where B is the optical density (OD) of a well with a competitor and Bo is the mean OD of the wells without competitor (control). […]
(§2) The cells which were positive in the initial screening and expanded were analyzed by competitive indirect ELISA (ciELISA) below for inhibition of antibody binding in the presence of free (unconjugated) tilmicosin on (XII) coated antigen plates. […]

[2] = tested on: monoclonal antibody 9-1-4 (Til-5); experiment: competitive indirect ELISA (ciELISA) on (XII) coated plates, antibody 9-1-4; assay type: binding
Procedure: as §1, §2

[3] = tested on: monoclonal antibody 9-7-7; experiment: competitive indirect ELISA (ciELISA) on (XII) coated plates, antibody 9-7-7; assay type: binding
Procedure: as §1, §2

[4] = tested on: monoclonal antibody 37-4-5 (Til-1); experiment: competitive indirect ELISA (ciELISA) on (XII) coated plates, antibody 37-4-5; assay type: binding
Procedure: as §1, §2

[5] = tested on: monoclonal antibody 37-2-6; experiment: competitive indirect ELISA (ciELISA) on (XII) coated plates, antibody 37-2-6; assay type: binding
Procedure: as §1, §2

[6] = tested on: monoclonal antibody 9-5-3; experiment: competitive indirect ELISA (ciELISA) on (XII) coated plates, antibody 9-5-3; assay type: binding
Procedure: as §1, §2

[7] = bovine lung tissue; after serum levels dropped below therapeutic concentrations; cited from earlier work
[8] = (IC50 of Tilmicosin)/(IC50 of other Compound) X100, — = no cross-reactivity observed

Row | SMILES | % Competition (percentage of cross-reactivity) [1, 8] | IC50, pmol/well ([1]; free compound as competitor) | % Competition (percentage of cross-reactivity) [2, 8] | IC50, pmol/well ([2]; free compound as competitor) | % Competition (percentage of cross-reactivity) [3, 8] | IC50, pmol/well ([3]; free compound as competitor) | % Competition (percentage of cross-reactivity) [4, 8] | IC50, pmol/well ([4]; free compound as competitor) | % Competition (percentage of cross-reactivity) [5, 8] | IC50, pmol/well ([5]; free compound as competitor) | % Competition (percentage of cross-reactivity) [6, 8] | IC50, pmol/well ([6]; free compound as competitor) | time lung concentrations exceed the P. haemolytica MIC after dosage [7]
1 | CC1CNCC(C)C1 (stereo not shown) [3,5-dimethyl piperidine] | 17% | 44.2 pmol/well | 18% | 41.5 pmol/well | 26% | 40.6 pmol/well | 19% | 61.8 pmol/well | 24% | 44.2 pmol/well | 72% | 35.3 pmol/well | –
2 | CCC1OC(=O)CC(O)C(C)C(OC2OC(C)C(O)C(N(C)C)C2O)C(CCN2CC(C)CC(C)C2)CC(C)C(=O)C=CC(C)=CC1COC1OC(C)C(O)C(OC)C1OC (stereo not shown) [Tilmicosin] | – | – | – | – | – | – | – | – | – | – | – | – | at least 72 hours
